From patent US20260144784A1, “COMPOSITION FOR PREVENTING OR TREATING MELAS SYNDROME, CONTAINING ISOPQUINOLINE DERIVATIVE AS ACTIVE INGREDIENT” (ALTMEDICAL CO., LTD., priority 2022, published 2026)

Columns and labels:
[1] = tested on: mitochondrial reactive oxygen species (ROS); assay: mitochondrial reactive oxygen species, MitoSOX assay; format: cell-based; settings: CD1-012 10 μM or 15 μM, CCCP 10 μM, 24 hours
Experimental: (§1) It was confirmed whether the isoquinoline derivative according to the present invention induces mitochondrial dysfunction, similar to CCCP. To this end, the CD1-012 (10 μM or 15 μM) and CCCP (10 μM) were treated for 24 hours, and the mitochondrial membrane potential and mitochondrial reactive oxygen species (ROS) levels in each sample were analyzed. Mitochondrial membrane potential was analyzed using the TMRM (tetramethylrhodamine methyl ester) assay, and mitochondrial ROS levels were analyzed using the MitoSOX assay.

[2] = tested on: PINK1 knockdown cell line (shPINK1); assay: mitophagy activity by FACS in PINK1 knockdown BEAS-2B cell line; format: cell-based, human; settings: CCCP 10 μM, CD1-012 15 μM, 18 hours
Experimental: In this example, it was confirmed whether the mitophagy activation function of the isoquinoline derivative according to the present invention is dependent on the PINK1-Parkin pathway. To this end, after a BEAS-2B cell line, in which PINK1 was knocked down using short hairpin RNA (shRNA), was treated with CCCP (10 μM) of Comparative Example 1 or CD1-012 (15 μM) for 18 hours, the mitophagy activity of each sample was analyzed using flow cytometry (FACS).

[3] = tested on: mitochondrial membrane potential; assay: mitochondrial membrane potential, TMRM assay; format: cell-based; settings: CD1-012 10 μM or 15 μM, CCCP 10 μM, 24 hours
Experimental: as §1

143B MELAS cell line [4] = assay: mitophagy activity, mt-Keima in 143B MELAS cell line (FACS, confocal microscope); format: cell-based; settings: 143B MELAS mt-Keima
From the text: (§2) In the previous example, it was confirmed that mitochondrial dysfunction occurs in the MELAS syndrome cell line, and in the present example, it was confirmed whether the compound according to the present invention can promote mitophagy in the MELAS syndrome cell line. In order to verify the mitophagy activity-promoting effect of the CD1-012 compound in the 143B MELAS cell line, a mitophagy quantification method using the mt-Keima fluorescent protein, which enables quantitative measurement of mitophagy activity in live cells, was used (2015 Mol Cell, 60 (4): 685-696.doi: 10.1016/j.molcel.2015.10.009:2018 J Vis Exp. (138): 58099 doi: 10.3791/58099.). Specifically, mt-Keima fluorescent protein was expressed in the 143B MELAS cell line, and after treatment with CD1-012 at various concentrations, mitophagy activity was measured using a mitophagy activity measurement method using a fluorescence-activated cell sorter (FACS) or a confocal microscope. […] Additionally, as a result of investigating the reduction of mitochondrial proteins associated with increased mitophagy activity by Western blot, it was confirmed that the levels of SDHA and COX4 proteins decreased when treated with CD1-012 at concentrations of 10 μM or higher (FIG. 9C).

SH-SYSY cell line = assay: mitophagy activity by flow cytometry in SH-SY5Y cells expressing mt-Keima; format: cell-based, human; settings: FACS
Experimental: (§3) It was confirmed whether CD1-012 synthesized in Example 1 increases mitophagy activity in various cell lines. To this end, CD1-012 and Comparative Example 1 (CCCP) were treated in the SH-SYSY cell line, a human neuroblastoma cell line expressing mt-Keima fluorescent protein, and in the HeLa-Parkin cell line, a HeLa cervical cancer cell line expressing Parkin (E3 ligase). Following this treatment, the mitophagy activity of each sample was analyzed using flow cytometry (FACS), and the results are shown in FIGS. 2A to 2B.

143B MELAS cell line [5] = assay: ATP synthesis in 143B MELAS cell line; format: cell-based; settings: 40 μM for 24 hours, measured 2 days later
Experimental: As confirmed through the previous examples, the compound according to the present invention can promote mitophagy in MELAS syndrome cells, and in the present example, it was confirmed whether the compound can improve mitochondrial dysfunction in MELAS syndrome cells. For this purpose, CD1-012 (40 μM) was treated in the 143B MELAS cell line for 24 hours, and ATP synthesis was measured 2 days later.

[6] = tested on: MELAS syndrome patient-derived cells; assay: mitochondrial protein levels (SDHA, SDHB) by Western blot in MELAS syndrome patient-derived cells; format: cell-based, human; settings: 24 hours
Experimental: As confirmed in the previous example, mitochondrial dysfunction is observed in MELAS syndrome patient-derived cells, and in the present example, it was confirmed whether the compound according to the present invention can promote mitophagy activity in MELAS syndrome patient-derived cells. CD1-012 was treated in MELAS syndrome patient-derived cells at concentrations of 20 μM or 40 μM for 24 hours, and the levels of mitochondrial proteins SDHA and SDHB were analyzed by Western blot.

[7] = tested on: MELAS syndrome patient-derived cells; assay: ATP levels in MELAS syndrome patient-derived cells; format: cell-based, human; settings: 40 μM for 24 hours, measured 2 days later, untreated 76%
Experimental: In this example, it was confirmed whether the compound according to the present invention can improve mitochondrial dysfunction in MELAS syndrome patient-derived cells. CD1-012 was treated in MELAS syndrome patient-derived cells at a concentration of 40 μM for 24 hours, and ATP levels were measured 2 days later. As a result, it was confirmed that the ATP levels in MELAS syndrome patient-derived cells, which had decreased to 76% of those in normal cells, were restored to 95% of normal levels by CD1-012 treatment (FIG. 13).

143B MELAS cell line [8] = assay: mitochondrial protein levels by Western blot in MELAS cell line; format: cell-based; settings: FIG. 9C
From the text: as §2

BEAS-2B cell line [9] = assay: mitophagy activity, mt-Keima fluorescent protein in BEAS-2B cells (FACS, confocal microscope, mito-YFP); format: cell-based, human; settings: BEAS-2B mt-Keima
Experimental: To analyze the mitophagy-promoting activity effect of the CD1-012 synthesized in the Example 1, the BEAS-2B cell line, which is a human normal lung cell line, was induced to express the mt-Keima fluorescent protein. Following this, the CD1-012 (15 μM) and the compound of Comparative Example 1, CCCP (10 μM), were treated for 24 hours. After the treatment, the mitophagy activity of each sample was measured, and the results were represented in FIGS. 1A to 1C.
Specifically, FIG. 1A represents the analysis results using flow cytometry (FACS) (treatment of CD1-012 at 15 μM for 24 hours), FIG. 1B represents the analysis results using a confocal microscope (treatment of CD1-012 at 15 μM for 18 hours), and FIG. 1C represents the measurement results of the quantitative changes in the mitochondria using a fluorescent protein, mito-YFP, which includes a targeting sequence to transport protein to the mitochondria (treatment of CD1-012 at 20 μM for 24 hours).
It was confirmed whether CD1-012 synthesized in Example 1 promotes mitophagy activity in a concentration- and time-dependent manner. To this end, the CD1-012 was treated at various concentrations or at a fixed concentration (15 μM) for different treatment durations in the BEAS-2B cell line expressing mt-Keima, and mitophagy activity was measured using a flow cytometer.
(§4) It was confirmed whether CD1-012 synthesized in Example 1 specifically increases only mitophagy activity. To this end, the BEAS-2B cell line expressing mt-Keima was treated with CD1-012 (15 μM) or Comparative Example 1 (CCCP, 10 μM) for 18 hours, and mitophagy activity was analyzed using a confocal microscope. Additionally, to measure autophagy activity, the BEAS-2B cell line expressing Keima fluorescent protein was incubated in Hanks' balanced salt solution (HBSS) for 3 hours to induce a starvation condition (starv.), and the results were compared with samples treated with CD1-012 (15 μM) for 18 hours using a confocal microscope.
To this end, the human normal lung cell line BEAS-2B, expressing mt-Keima fluorescent protein, was treated with CD1-012, Comparative Example 2 (palmatine), or Comparative Example 3 (berberine) at various concentrations, and the mitophagy-inducing activity of each sample was compared.

BEAS-2B cell line [10] = assay: autophagy activity, Keima fluorescent protein in BEAS-2B cells (confocal microscope); format: cell-based, human; settings: BEAS-2B Keima; 15 μM 18 hours, FIG. 4B
Experimental: as §4

HeLa-Parkin cell line = assay: mitophagy activity by flow cytometry in HeLa-Parkin cells; format: cell-based; settings: FACS
Experimental: as §3

## N#CC(C#N)=NNc1cccc(Cl)c1 [CCCP, Carbonyl Cyanide 3-Chlorophenylhydrazone, reference compound]
[1]
  mitochondrial ROS levels: significantly increased
[2]
  mitophagy activation in PINK1 knockdown cell line (shPINK1) compared to control cell line (shNT): significantly decreased
[3]
  mitochondrial membrane potential: significantly reduced

## Oc1cc2c(cc1O)-c1cc3ccc(O)c(O)c3c[n+]1CC2 [CD1-012, 2,3,9,10-Tetrahydroxy-5,6-dihydroisoquinolino [3,2-a]isoquinolin-7-iumbromide]
[1]
  mitochondrial ROS levels: no increase in mitochondrial ROS was detected
143B MELAS cell line [4]; FIG. 9A
  concentration at which mitophagy activity in the MELAS cell line significantly increased (flow cytometry): ≥ 10 µM
143B MELAS cell line [4]; 20 μM and 40 μM, FIG. 9B
  mitophagy activity by confocal microscopy analysis: increase in mitophagy activity
SH-SYSY cell line
  mitophagy activity compared to the control group (Con): significantly increased mitophagy activity
143B MELAS cell line [5]
  ATP level relative to the normal cell line levels: 90%
  increase in ATP levels versus untreated MELAS cells: 131%
143B MELAS cell line [5]; untreated MELAS cells 39.6 nM
  ATP levels: 51.9 nM
[2]
  mitophagy activation in PINK1 knockdown cell line (shPINK1) compared to control cell line (shNT): did not show a significant difference
[6]; 20 μM
  mitochondrial protein levels (SDHA, SDHB) compared to the untreated control group: decrease in mitochondrial protein levels
[6]; 40 μM
  mitochondrial protein expression (SDHA, SDHB) compared to the untreated control group: more pronounced decrease in mitochondrial protein expression
[3]
  mitochondrial membrane potential: no decrease in mitochondrial membrane potential was observed
[7]
  ATP levels relative to normal cells: 95%
143B MELAS cell line [8]
  concentration at which the levels of SDHA and COX4 proteins decreased: ≥ 10 µM
BEAS-2B cell line [9]; FACS, 15 μM 24 hours vs CCCP 10 μM
  mitophagy activity compared with CCCP-treated sample (FIG. 1A): increased as significantly as
BEAS-2B cell line [9]; FIG. 5
  concentration at which mitophagy activity reached a level comparable to the maximum of palmatine and berberine: 10 UM
  mitophagy-inducing activity relative to berberine: approximately 8 times
  mitophagy-inducing activity relative to palmatine: approximately 40 times
BEAS-2B cell line [9]; flow cytometer, FIG. 3A
  concentration at which mitophagy activity began to significantly increase compared to untreated control: ≥ 7.5 µM
BEAS-2B cell line [9]; 15 μM 18 hours vs CCCP 10 μM, FIG. 4A
  mitophagy-promoting effect compared with CCCP (confocal microscope): mitophagy-promoting effects similar to those observed in the CCCP-treated sample
BEAS-2B cell line [9]; 15 μM 24 hours (FACS), 15 μM 18 hours (confocal), 20 μM 24 hours (mito-YFP)
  mitophagy activity compared to the untreated control group (Con): significant increase in mitophagy activity
BEAS-2B cell line [9]; 15 μM, FIG. 3B
  treatment time after which mitophagy activity began to significantly increase: 3 h
  treatment time at which mitophagy activity reached its maximum level: 18 h
BEAS-2B cell line [9]; up to the maximum treatment concentration of 17.5 μM
  concentration dependence of mitophagy activity: continued to increase in a concentration-dependent manner
BEAS-2B cell line [10]
  autophagy activity compared to the untreated control group: no significant difference in autophagy activity
HeLa-Parkin cell line
  mitophagy activity compared to the control group (Con): significantly increased mitophagy activity

## COc1ccc2cc3[n+](cc2c1OC)CCc1cc2c(cc1-3)OCO2 [berberine, Berberine, reference compound]
BEAS-2B cell line [9]; FIG. 5
  concentration at which mitophagy activity reached its maximum: 80 µM

## COc1cc2c(cc1OC)-c1cc3ccc(OC)c(OC)c3c[n+]1CC2 [palmatine, Palmatine, reference compound]
BEAS-2B cell line [9]; FIG. 5
  concentration at which mitophagy activity reached its maximum: 400 µM
